According to patent US9062002B2, “Substituted pyridine derivatives as FabI inhibitors” (Aurigene Discovery Technologies Limited, priority 2011, dated 2015):
≈ marks a conversion by molar mass, not a printed value. Read-outs that look alike come from different tables or passages of the source.

Experiments:
[1] = test system: MSSA; test: MIC by broth microdilution method; type: cell-based; details: for MIC: Staphylococcus aureus, MRSA / MSSA, read-out: MIC Vs MRSA (μg/ml) MSSA
[2] = test system: MRSA; test: MIC by broth microdilution method; type: cell-based; details: for MIC: Staphylococcus aureus, read-out: MIC Vs MRSA (μg/ml) MRSA
[3] = test system: MRSE; test: MIC by broth microdilution method; type: cell-based; details: for MIC: Staphylococcus epidermidis, MRSA / MRSE, read-out: MIC Vs MRSA (μg/ml) MRSE
[4] = test system: Fab I; details: 1 μM compound
[5] = Metabolic stability study in mouse liver microsomes; type: in vitro ADME; details: 1 μM, 37° C.
Method: The above selected compounds have protected mice from infection at ED50 doses. Metabolic Stability Study: In vitro metabolic stability of the compounds was done in mouse liver microsomes prepared in house as per standard protocol. Compounds were tested at 1 μM concentration. Compounds were incubated for 15 and 60 minutes at 37° C. with 100 rpm in shaker bath. After the incubation samples were analysed by LC/MS (API-4000). Respective control (Propranalol) was included in the study.

Row | Percentage of compound remained after 15 min [5] [%] | Percentage of compound remained after 60 min [5] [%] | Structure (SMILES) | FAB-I inhibition %@1 μM [4] [%] | MIC ([1]; MSSA, broth microdilution) [µg/mL] | MIC ([2]; MRSA, broth microdilution) [µg/mL] | MIC ([3]; MRSE, broth microdilution) [µg/mL] | further results
1 | – | – | O=C1CCc2cc(/C=C/C(=O)N3CC=C(Cc4nccs4)CC3)cnc2N1 [Compound 97] | 66.85 | – | – | – | MIC Vs MRSA (μg/ml) MSSA [1]: 0.5 µg/mL (≈ 1.31 µM); MIC Vs MRSA (μg/ml) MRSA [2]: 0.5 µg/mL (≈ 1.31 µM); MIC Vs MRSA (μg/ml) MRSE [3]: 1 µg/mL (≈ 2.63 µM)
2 | – | – | O=C1CCc2cc(/C=C/C(=O)N3CC=C(Cc4cccc(Cl)c4)CC3)cnc2N1 [Compound 67] | 63 | – | – | – | MIC Vs MRSA (μg/ml) MSSA ([1]; MSSA, broth microdilution): 2 µg/mL (≈ 4.9 µM); MIC Vs MRSA (μg/ml) MRSA ([2]; MRSA, broth microdilution): 1 µg/mL (≈ 2.45 µM); MIC Vs MRSA (μg/ml) MRSE ([3]; MRSE, broth microdilution): 2 µg/mL (≈ 4.9 µM)
3 | – | – | CC(=O)N1CCC2(CC1)Cc1cc(/C=C/C(=O)N3CC=C(Cc4cccs4)CC3)cnc1NC2=O [Compound 96, (E)-1′-acetyl-6-(3-oxo-3-(4-(thiophen-2-ylmethyl)-5,6-dihydropyridin-1(2H)-yl)prop-1-en-1-yl)-1H-spiro[[1,8]naphthyridine-3,4′-piperidin]-2(4H)-one] | – | 8 (≈ 16.3 µM) | 8 (≈ 16.3 µM) | 16 (≈ 32.6 µM) | –
4 | – | – | O=C1CCc2cc(/C=C/C(=O)N3CC=C(COc4ccccc4)CC3)cnc2N1 [Compound 107, (E)-6-(3-oxo-3-(4-(phenoxymethyl)-5,6-dihydropyridin-1(2H)-yl)prop-1-en-1-yl)-3,4-dihydro-1,8-naphthyridin-2(1H)-one] | 95 | 4 (≈ 10.3 µM) | 4 (≈ 10.3 µM) | 4 (≈ 10.3 µM) | –
5 | – | – | Cc1ccc(CC2=CCN(C(=O)/C=C/c3cnc4c(c3)CCC(=O)N4)CC2)cc1 [Compound 70] | 63.47 | – | – | – | MIC Vs MRSA (μg/ml) MSSA [1]: 1 µg/mL (≈ 2.58 µM); MIC Vs MRSA (μg/ml) MRSA [2]: 1 µg/mL (≈ 2.58 µM); MIC Vs MRSA (μg/ml) MRSE [3]: 2 µg/mL (≈ 5.16 µM)
6 | 57.9 | 15.8 | CN1CCC2(CC1)Cc1cc(/C=C/C(=O)N3CC=C(Cc4cccs4)CC3)cnc1NC2=O [Compound 146, (E)-1′-methyl-6-(3-oxo-3-(4-(thiophen-2-ylmethyl)-5,6-dihydropyridin-1(2H)-yl)prop-1-en-1-yl)-1H-spiro[[1,8]naphthyridine-3,4′-piperidin]-2(4H)-one] | – | – | – | – | –
7 | 27.5 | 15.8 | O=C1CCNc2cc(/C=C/C(=O)N3CC=C(Cc4nccs4)CC3)cnc2N1 [Compound 143, (E)-8-(3-oxo-3-(4-(thiazol-2-ylmethyl)-5,6-dihydropyridin-1(2H)-yl)prop-1-en-1-yl)-2,3-dihydro-1H-pyrido[2,3-b][1,4]diazepin-4(5H)-one] | – | – | – | – | –
8 | – | – | O=C1CCc2cc(/C=C/C(=O)N3CC=C(Cn4cccn4)CC3)cnc2N1 [Compound 100] | 77 | – | – | – | MIC Vs MRSA (μg/ml) MSSA ([1]; MSSA, broth microdilution): 128 µg/mL (≈ 352 µM); MIC Vs MRSA (μg/ml) MRSA ([2]; MRSA, broth microdilution): 128 µg/mL (≈ 352 µM); MIC Vs MRSA (μg/ml) MRSE ([3]; MRSE, broth microdilution): 128 µg/mL (≈ 352 µM)
9 | 83.3 | 60.2 | O=C1CCc2cc(/C=C/C(=O)N3CC=C(Cc4cncs4)CC3)cnc2N1 [Compound 145] | – | – | – | – | –
10 | 1.9 | 1.7 | CC(C)CC(=O)N1CCC2(CC1)Cc1cc(/C=C/C(=O)N3CC=C(Cc4cccs4)CC3)cnc1NC2=O [Compound 140, (E)-1′-(3-methylbutanoyl)-6-(3-oxo-3-(4-(thiophen-2-ylmethyl)-5,6-dihydropyridin-1(2H)-yl)prop-1-en-1-yl)-1H-spiro[[1,8]naphthyridine-3,4′-piperidin]-2(4H)-one] | – | – | – | – | –

Row | Structure (SMILES) | Percentage of compound remained after 15 min [5] [%] | Percentage of compound remained after 60 min [5] [%] | FAB-I inhibition %@1 μM [4] [%] | MIC ([1]; MSSA, broth microdilution) [µg/mL] | MIC ([2]; MRSA, broth microdilution) [µg/mL] | MIC ([3]; MRSE, broth microdilution) [µg/mL] | further results
11 | O=C1CCc2cc(/C=C/C(=O)N3CC=C(c4ccccc4)CC3)cnc2N1 [Compound 2, (E)-6-(3-oxo-3-(4-phenyl-5,6-dihydropyridin-1(2H)-yl)prop-1-en-1-yl)-3,4-dihydro-1,8-naphthyridin-2(1H)-one] | 99.7 | 97.9 | 86 | 0.5 (≈ 1.39 µM) | 0.5 (≈ 1.39 µM) | 4 (≈ 11.1 µM) | –
12 | O=C(/C=C/c1cnc2c(c1)CN(CCN1CCOCC1)C(=O)N2)N1CC=C(Cc2cccs2)CC1 [Compound 90, (E)-3-(2-morpholinoethyl)-6-(3-oxo-3-(4-(thiophen-2-ylmethyl)-5,6-dihydropyridin-1(2H)-yl)prop-1-en-1-yl)-3,4-dihydro pyrido[2,3-d]pyrimidin-2(1H)-one] | 32.4 | 22.9 | 89 | > 128 | > 128 | > 128 | –
13 | O=C1CCNc2cc(/C=C/C(=O)N3CC=C(Cc4cccs4)CC3)cnc2N1 [Compound 91, (E)-8-(3-oxo-3-(4-(thiophen-2-ylmethyl)-5,6-dihydropyridin-1(2H)-yl)prop-1-en-1-yl)-2,3-dihydro-1H-pyrido[2,3-b][1,4]diazepin-4(5H)-one] | 81.3 | 79.3 | 93 | 0.25 (≈ 0.634 µM) | 0.5 (≈ 1.27 µM) | 0.5 (≈ 1.27 µM) | –
